Legend:
Format in all cases: cell-based
HIV-1 (strain LAV-1) = assay: Inhibition of HIV-1 replication in human PBMC (supernatant RT activity); settings: Human immunodeficiency virus 1, PBMC; light/dark not stated; read-out: Antiviral Effect: EC50 HIV-1
Method: Cells: Human peripheral blood mononuclear cells (PBMC) from healthy HIV-1 seronegative and hepatitis B virus seronegative donors were isolated by Ficoll-Hypaque discontinuous gradient centrifugation at 1,000×g for 30 minutes, washed twice in phosphate-buffered saline (pH 7.2; PBS), and pelleted at 300×g for 10 minutes. Before infection, the cells were stimulated by phytohemagglutinin (PHA) at a concentration of 16.7 μg/ml, and 4 mM sodium bicarbonate buffer.
Retrovirus: HIV-1 (strain LAV-1) was obtained from Dr. P. Feorino (Centers for Disease Control, Atlanta, Ga.). The virus was propagated in human PBMC using RPMI 1640 medium, as described previously by McDougal, et al., (“Immunoassay for the detection and quantitation of infectious human retrovirus, lymphadenopathy-associated virus (LAV),” J. Immun. Meth. 76, 171-183, 1985) without PBA or fungizone and supplemented with 7% (v/v) interleukin-2 (Advanced Biotechnologies, Silver Spring, Md.), 7 μg/ml DEAE-dextran (Pharmacia, Uppsala, Sweden), and 370 U/ml anti-human leukocyte (alpha) interferon (ICN, Lisle, Ill.). Virus obtained from cell-free culture supernatant was titrated and stored in aliquots at −70° C. until use.
Inhibition of Virus Replication in Human PBMC: Uninfected PHA-stimulated human PBMC were uniformly distributed among 25 cm^2 flasks to give a 5 ml suspension containing about 2×10^6 cells/ml. Suitable dilutions of virus were added to infect the cultures. The mean reverse transcriptase (RT) activity of the inocula was 50,000 dpm/ml corresponding to about 100 TCID50, as determined by Groopman, et al., (1987), “Characterization of Serum Neutralization Response to the Human Immunodeficiency Virus (HIV),” AIDS Res. Human Retro. 3, 71-85. The drugs, at twice their final concentrations in 5 ml of RPMI 1640 medium (supplemented as described above), were added to the cultures. Uninfected and untreated PBMC at equivalent cell densities were grown in parallel as controls. The cultures were maintained in a humidified 5% CO2-95% air incubator at 37° C. for six days after infection at which point all cultures were sampled for supernatant RT activity.
RT Activity Assay: A […] aliquot of supernatant from each culture was clarified of cells at 300×g for 10 minutes. […]
The RT assay was performed in 96-well microtiter plates, as described by Spira, et al. (1987), “Micromethod for Assaying the Reverse Transcriptase of LAV-HTLV-III/Lymphadenopathy-Associated Virus,” J. Clin. Microbiol. […] Four ml of scintillation fluid (Econofluor, NEN Research Products, Boston, Mass.) were added and the amount of radioactivity in each sample was determined using a Packard Tri-Carb liquid scintillation analyzer (model 2,000CA). […]

HSV-1 (F strain) = assay: HSV plaque reduction assay in Vero cells, HSV-1; settings: Human alphaherpesvirus 1, Vero, light/dark not stated; read-out: Antiviral Effect: EC50 HSV-1
Method: (§1) HSV Preparation: Confluent HEp-2 cells, in a roller bottle (Falcon, 850 cm^2), were infected at an input multiplicity of 0.01 PFU per cell (to minimize production of defective viruses). During the two-hour absorption period, the cells were exposed to the virus inoculum diluted in absorption buffer (10 ml PBS containing 1% newborn calf serum and 0.1% glucose). The virus inoculum was then removed and replaced with Hanks' Minimum Essential Medium (MEM) containing 2% inactivated newborn calf serum, penicillin (100 U/ml) and streptomycin (100 μg/ml) (P and S), sodium bicarbonate (2 g/L) and HEPES (25 mM) (maintenance medium). The infected cells were incubated at 37° C. for 3 to 4 days, until the cells could be easily shaken from the plastic surface of the culture bottles. The cells were then collected by centrifugation, suspended in a small volume of spent culture fluid (5 ml per 2×10^8 cells) and sonicated 3 times for one min on ice. The disrupted cells were centrifuged (2,000 g for 15 min at 4° C. and the supernatant was diluted with an equal volume of sterile skimmed milk (as stabilizer) and aliquots were frozen at −70° C.
(§2) HSV Plaque Reduction Assay: Near confluent Vero (African Green Monkey) cells in 6-well plates were infected with 100 μl virus diluted in absorption buffer to give 100-200 plaques per well. The plates were then incubated at 37° C. for 1 hour with intermittent rocking every 15 minutes. The inoculum was aspirated and the compounds at different concentrations (dissolved in maintenance medium) were added to replicate wells. For these assays, 0.1% pooled human gamma globulin was included in the media. The plates were placed in 5% CO2-95% air incubator and the plaques were allowed to develop for 48 h prior to fixation (buffered 10% Formalin acetate), staining (0.5% crystal violet in 20% EtOH/H2O) and enumeration. The degree of inhibition (percent plaques of control) was calculated by counting the mean plaque counts for the different drug dilutions. […] For routine antiviral drug screening, we used the F strain of HSV-1 and the G strain of HSV-2 (Ejercito, et al., “Characterization of Herpes Simplex virus Strains Differing in Their Effect on Social Behavior of Infected Cells,” J. Gen. Virol. 2, 357-364 (1968)). […] Acyclovir (ACV) was used as a positive control for the studies on HSV.
(§3) Median-Effect Method: EC50 and IC50 values were obtained by analysis of the data using the median-effect equation (Chou, T., et al., “Quantitative Analysis of Dose-Effect Relationships: The Combined Effects of Multiple Drugs or Enzyme Inhibitors,” Adv. Enz. Regul. 22, 27-55 (1984).

HSV-2 (G strain) = assay: HSV plaque reduction assay in Vero cells, HSV-2; settings: Human alphaherpesvirus 2, Vero, light/dark not stated; read-out: Antiviral Effect: EC50 HSV-2
Method: as §1, §2, §3

HIV (LAV-I) = assay: HIV in human PBMC, P24 levels by EIA
Method: While the previous example measured RT activity, the present example utilizes a direct quantitation of a viral protein (P24) as an indicator of antiviral effectiveness.
Peripheral blood mononuclear (PBM) cells were infected with HIV and treated with methylene blue as described above. The EC50 levels were calculated from enzyme immuno-assay (EIA) measurements of viral coat protein P24. The P24-specific EIA kit was purchased from Abbott Labs.

Cc1cn([C@H]2C[C@H](N=[N+]=[N-])[C@@H](CO)O2)c(=O)[nH]c1=O [AZT, 3′-azido-3′-deoxythymidine]
EC50 (HIV-1 (strain LAV-1)): 0.22 nM
EC50 (HSV-1 (F strain)): > 100000 nM
EC50 (HSV-2 (G strain)): > 100000 nM
ng P24/ml (HIV (LAV-I); 0.0001 μM): 360.7 ng P24/ml
ng P24/ml (HIV (LAV-I); 0.001 μM): 266.2 ng P24/ml
ng P24/ml (HIV (LAV-I); 0.01 μM): 36.1 ng P24/ml
ng P24/ml (HIV (LAV-I); 0.1 μM): 5.2 ng P24/ml
inhibition at 0.0001 µM (HIV (LAV-I); Human immunodeficiency virus 1, PBMC, 0.0001 μM, read-out: % Inhibition (corrected)): -0.5%
inhibition at 0.001 µM (HIV (LAV-I); Human immunodeficiency virus 1, PBMC, 0.001 μM, read-out: % Inhibition (corrected)): 25.8%
inhibition at 0.01 µM (HIV (LAV-I); Human immunodeficiency virus 1, PBMC, 0.01 μM, read-out: % Inhibition (corrected)): 89.9%
inhibition at 0.1 µM (HIV (LAV-I); Human immunodeficiency virus 1, PBMC, 0.1 μM, read-out: % Inhibition (corrected)): 98.5%
EC50 (HIV (LAV-I); Human immunodeficiency virus 1, PBMC, light/dark not stated, read-out: EC50 (P24)): 6.4 nM

Reference: patent publication US6346529B1, “Antiviral therapy using thiazine dyes” (Oklahoma Medical Research Foundation, priority 1988, dated 2002)
